{"source": "patent US4537769A", "about": "(priority 1982, dated 1985)", "test_system": "H7N1 neuraminidase", "assay_type": "biochemical, influenza virus", "conditions": "for Units of Activity: 37° C. for 24 hours; for Neuraminidase Activity-24 Hrs Post 37° C.: H7N1 vaccine", "key": {"[1]": {"conditions": "H7N1 vaccine with additive at .04%"}, "[2]": {"conditions": "H7N1 vaccine with additive at .07%"}, "[3]": {"conditions": "H7N1 vaccine with additive at .03%"}, "[4]": {"conditions": "H7N1 vaccine with additive at .05%"}, "[5]": {"conditions": "H7N1 vaccine with additive at .02%"}}, "note": "Like-named read-outs stand apart in the source and are kept apart here.", "data": [{"compound": "CC(C)[C@H](N)C(=O)O", "note": "[Valine]", "values": [{"measurement": "Units of Activity", "setting": "H7N1 vaccine with additive at .06%", "result": "6.7 Nanomoles of N--acetyl neurami"}]}, {"compound": "C[C@@H](O)[C@H](N)C(=O)O", "note": "[Threonine]", "values": [{"measurement": "Units of Activity", "setting": "[1]", "result": "6.7 Nanomoles of N--acetyl neurami"}]}, {"compound": "NCCCC[C@H](N)C(=O)O", "note": "[Lysine]", "values": [{"measurement": "Units of Activity", "setting": "[2]", "result": "8.5 Nanomoles of N--acetyl neurami"}]}, {"compound": "N[C@@H](Cc1ccc(O)cc1)C(=O)O", "note": "[Tyrosine]", "values": [{"measurement": "Units of Activity", "setting": "[3]", "result": "4.4 Nanomoles of N--acetyl neurami"}]}, {"compound": "N[C@@H](CO)C(=O)O", "note": "[Serine]", "values": [{"measurement": "Units of Activity", "setting": "[4]", "result": "9.1 Nanomoles of N--acetyl neurami"}]}, {"compound": "CC(C)C[C@H](N)C(=O)O", "note": "[Leucine]", "values": [{"measurement": "Units of Activity", "setting": "H7N1 vaccine with additive at .08%", "result": "7.3 Nanomoles of N--acetyl neurami"}]}, {"compound": "O=C(O)[C@@H]1CCCN1", "note": "[Proline]", "values": [{"measurement": "Units of Activity", "setting": "H7N1 vaccine with additive at .09%", "result": "12.3 Nanomoles of N--acetyl neurami"}, {"measurement": "Neuraminidase Activity-24 Hrs Post 37° C.", "setting": "No. 5: Proline 0.09 % w/v", "result": 12.3}, {"measurement": "Neuraminidase Activity-24 Hrs Post 37° C.", "setting": "No. 6: Proline 0.18 % w/v", "result": 17.5}, {"measurement": "Neuraminidase Activity-24 Hrs Post 37° C.", "setting": "No. 7: Proline 0.36 % w/v", "result": 26.2}, {"measurement": "Neuraminidase Activity-24 Hrs Post 37° C.", "setting": "No. 8: Proline 0.54 % w/v", "result": 30.7}]}, {"compound": "C[C@H](N)C(=O)O", "note": "[Alanine]", "values": [{"measurement": "Units of Activity", "setting": "[3]", "result": "9.0 Nanomoles of N--acetyl neurami"}]}, {"compound": "NCC(=O)O", "note": "[Glycine]", "values": [{"measurement": "Units of Activity", "setting": "[5]", "result": "8.5 Nanomoles of N--acetyl neurami"}]}, {"compound": "CSCC[C@H](N)C(=O)O", "note": "[Methionine]", "values": [{"measurement": "Units of Activity", "setting": "[5]", "result": "8.9 Nanomoles of N--acetyl neurami"}]}, {"compound": "N[C@@H](Cc1c[nH]cn1)C(=O)O", "note": "[Histidine]", "values": [{"measurement": "Units of Activity", "setting": "[5]", "result": "13.1 Nanomoles of N--acetyl neurami"}, {"measurement": "Neuraminidase Activity-24 Hrs Post 37° C.", "setting": "No. 1: Histidine 0.02 % w/v", "result": 13.0}, {"measurement": "Neuraminidase Activity-24 Hrs Post 37° C.", "setting": "No. 2: Histidine 0.05 % w/v", "result": 17.3}, {"measurement": "Neuraminidase Activity-24 Hrs Post 37° C.", "setting": "No. 3: Histidine 0.09 % w/v", "result": 23.8}, {"measurement": "Neuraminidase Activity-24 Hrs Post 37° C.", "setting": "No. 4: Histidine 0.13 % w/v", "result": 27.9}]}, {"compound": "N[C@@H](CC(=O)O)C(=O)O", "note": "[Aspartic Acid]", "values": [{"measurement": "Units of Activity", "setting": "[2]", "result": "5.9 Nanomoles of N--acetyl neurami"}]}, {"compound": "N[C@@H](Cc1c[nH]c2ccccc12)C(=O)O", "note": "[Tryptophan]", "values": [{"measurement": "Units of Activity", "setting": "H7N1 vaccine with additive at .01%", "result": "10.4 Nanomoles of N--acetyl neurami"}]}, {"compound": "CC[C@H](C)[C@H](N)C(=O)O", "note": "[Isoleucine]", "values": [{"measurement": "Units of Activity", "setting": "[4]", "result": "5.2 Nanomoles of N--acetyl neurami"}]}, {"compound": "N[C@@H](Cc1ccccc1)C(=O)O", "note": "[Phenylalanine]", "values": [{"measurement": "Units of Activity", "setting": "[1]", "result": "9.1 Nanomoles of N--acetyl neurami"}]}, {"compound": "N[C@@H](CCC(=O)O)C(=O)O", "note": "[Glutamic Acid]", "values": [{"measurement": "Units of Activity", "setting": "H7N1 vaccine with additive at .18%", "result": "4.5 Nanomoles of N--acetyl neurami"}]}]}
